# Target: T1, mTOR (Homo sapiens, UniProt P42345)
# T1 construct: FLAG; made in house
# Assay: In Vitro mTOR Kinase Assay (Echo), Test (a)(ii)
# Assay type: biochemical
# Settings: read-out: mTOR Kinase Assay (Echo)
# Method in brief: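 Inhibition of truncated mTOR (1362-2549, FLAG-tagged, purified from stably transfected HEK293 cells) is measured as reduced AlphaScreen signal from a phospho-T389-recognising antibody bound to the biotinylated peptide product. Kinase incubation lasts 2 hours at room temperature. Potency is given as IC50.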
# T1 sequence (P42345 1362-2549): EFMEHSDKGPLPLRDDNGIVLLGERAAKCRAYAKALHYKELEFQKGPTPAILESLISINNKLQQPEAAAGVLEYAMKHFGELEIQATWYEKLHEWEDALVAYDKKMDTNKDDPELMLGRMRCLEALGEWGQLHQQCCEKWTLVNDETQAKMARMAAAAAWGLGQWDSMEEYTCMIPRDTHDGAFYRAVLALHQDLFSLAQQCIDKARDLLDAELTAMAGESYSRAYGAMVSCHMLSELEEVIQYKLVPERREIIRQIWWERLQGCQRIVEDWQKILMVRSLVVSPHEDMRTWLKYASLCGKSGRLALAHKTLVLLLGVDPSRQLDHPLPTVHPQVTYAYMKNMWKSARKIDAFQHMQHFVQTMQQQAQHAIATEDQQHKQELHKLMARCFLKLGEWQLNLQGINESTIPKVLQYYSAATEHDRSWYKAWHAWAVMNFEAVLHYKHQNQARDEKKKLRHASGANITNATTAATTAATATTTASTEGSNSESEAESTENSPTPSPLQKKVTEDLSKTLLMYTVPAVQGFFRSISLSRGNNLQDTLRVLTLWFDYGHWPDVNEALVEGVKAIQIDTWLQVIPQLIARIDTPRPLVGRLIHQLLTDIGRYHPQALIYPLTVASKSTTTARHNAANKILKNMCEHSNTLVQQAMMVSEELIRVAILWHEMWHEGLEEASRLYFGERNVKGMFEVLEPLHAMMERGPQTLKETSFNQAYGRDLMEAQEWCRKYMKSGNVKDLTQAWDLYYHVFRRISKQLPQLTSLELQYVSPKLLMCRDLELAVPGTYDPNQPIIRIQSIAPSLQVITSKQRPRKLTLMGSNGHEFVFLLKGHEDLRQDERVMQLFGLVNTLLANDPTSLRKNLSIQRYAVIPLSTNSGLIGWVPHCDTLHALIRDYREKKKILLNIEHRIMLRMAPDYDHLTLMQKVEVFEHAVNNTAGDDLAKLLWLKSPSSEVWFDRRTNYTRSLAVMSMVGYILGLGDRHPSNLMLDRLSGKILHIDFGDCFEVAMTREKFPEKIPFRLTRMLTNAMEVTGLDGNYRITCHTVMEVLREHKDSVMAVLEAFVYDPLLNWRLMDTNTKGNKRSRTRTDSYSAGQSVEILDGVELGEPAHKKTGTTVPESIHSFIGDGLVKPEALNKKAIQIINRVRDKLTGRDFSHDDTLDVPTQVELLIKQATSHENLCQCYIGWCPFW
row,IC50,SMILES
1,0.137 nM,"C[C@H]1COCCN1c1cc(C2(S(C)(=O)=O)CC2)nc(-c2ccc(NC(=O)Nc3ccon3)cc2)n1 [Example 2g, 1-[4-[4-[(3S)-3-methylmorpholin-4-yl]-6-(1-methylsulfonylcyclopropyl)pyrimidin-2-yl]phenyl]-3-(1,2-oxazol-3-yl)urea]"
2,11.5 nM,"CC(C)CNC(=O)Nc1ccc(-c2nc(N3CCOC[C@@H]3C)cc(C3(S(C)(=O)=O)CCCC3)n2)cc1 [Example 4i, 1-[4-[4-[(3S)-3-methylmorpholin-4-yl]-6-(1-methylsulfonylcyclopentyl)pyrimidin-2-yl]phenyl]-3-(2-methylpropyl)urea]"
3,2.57 nM,"C[C@H]1COCCN1c1cc(C2(S(=O)(=O)C3CC3)CC2)nc(-c2ccc(NC(=O)NCCCO)cc2)n1 [Example 3l, 1-[4-[4-(1-cyclopropylsulfonylcyclopropyl)-6-[(3S)-3-methylmorpholin-4-yl]pyrimidin-2-yl]phenyl]-3-(3-hydroxypropyl)urea]"
4,3.33 nM,"CCNC(=O)Nc1ccc(-c2nc(N3CCOC[C@@H]3C)cc(C3(S(=O)(=O)CC)CC3)n2)cc1 [Example 11b, 1-ethyl-3-[4-[4-(1-ethylsulfonylcyclopropyl)-6-[(3S)-3-methylmorpholin-4-yl]pyrimidin-2-yl]phenyl]urea]"

# Same assay, conditions: table of enzyme assay Test (a)(ii); read-out: Test (a)(ii) IC50
row,IC50,SMILES
1,18.6 nM,"C[C@H]1COCCN1c1cc(C2(S(=O)(=O)CCC(C)(C)O)CC2)nc(-c2ccc(NC(=O)NC3CC3)cc2)n1 [Example 79, 3-Cyclopropyl-1-[4-[4-[1-(3-hydroxy-3-methylbutyl)sulfonylcyclopropyl]-6-[(3S)-3-methylmorpholin-4-yl]pyrimidin-2-yl]phenyl]urea]"
2,6.84 nM,"C[C@H]1COCCN1c1cc(C2(S(=O)(=O)c3ccc(Cl)cc3)CC2)nc(-c2ccc(NC(=O)NCC(F)F)cc2)n1 [Example 64ah, 1-[4-[4-[1-(4-chlorophenyl)sulfonylcyclopropyl]-6-[(3S)-3-methylmorpholin-4-yl]pyrimidin-2-yl]phenyl]-3-(2,2-difluoroethyl)urea]"
3,3.85 nM,"Cc1csc(S(=O)(=O)C2(c3cc(N4CCOC[C@@H]4C)nc(-c4ccc(NC(=O)NCC(C)C)cc4)n3)CC2)n1 [Example 25c, 1-[4-[4-[(3S)-3-methylmorpholin-4-yl]-6-[1-[(4-methyl-1,3-thiazol-2-yl)sulfonyl]cyclopropyl]pyrimidin-2-yl]phenyl]-3-(2-methylpropyl)urea]"
4,3.41 nM,"CNC(=O)Nc1ccc(-c2nc(N3CCOCC3)cc(C3(S(=O)(=O)C4CC4)CC3)n2)cc1 [Example 13a, 1-[4-[4-(1-cyclopropylsulfonylcyclopropyl)-6-morpholin-4-ylpyrimidin-2-yl]phenyl]-3-methylurea]"
5,1.31 nM,"C[C@H]1COCCN1c1cc(C2(S(=O)(=O)CCCO)CC2)nc(-c2ccc(NC(=O)Nc3ccccn3)cc2)n1 [Example 31c, 1-[4-[4-[1-(3-hydroxypropylsulfonyl)cyclopropyl]-6-[(3S)-3-methylmorpholin-4-yl]pyrimidin-2-yl]phenyl]-3-pyridin-2-ylurea]"
6,0.231 nM,"C[C@H]1COCCN1c1cc(C2(S(C)(=O)=O)CC2)nc(-c2ccc(NC(=O)Nc3ccon3)cc2)n1 [Example 2g, 1-[4-[4-[(3S)-3-methylmorpholin-4-yl]-6-(1-methylsulfonylcyclopropyl)pyrimidin-2-yl]phenyl]-3-(1,2-oxazol-3-yl)urea]"
7,123 nM,"C[C@H]1COCCN1c1cc(C2(S(C)(=O)=O)CCCC2)nc(-c2cnc(NC(=O)NCCO)nc2)n1 [Example 14u, 3-(2-hydroxyethyl)-1-[5-[4-[(3S)-3-methylmorpholin-4-yl]-6-(1-methylsulfonylcyclopentyl)pyri-midin-2-yl]pyrimidin-2-yl]urea]"
8,17.3 nM,"C[C@H]1COCCN1c1cc(C2(S(=O)(=O)c3cc(F)ccc3F)CC2)nc(-c2ccc(NC(=O)Nc3cnn(C)c3)cc2)n1 [Example 60f, 1-[4-[4-[1-(2,5-difluorophenyl)sulfonylcyclopropyl]-6-[(3S)-3-methylmorpholin-4-yl]pyrimidin-2-yl]phenyl]-3-(1-methylpyrazol-4-yl)urea]"
9,2.9 nM,"C[C@H]1COC[C@H](C)N1c1cc(C2(S(=O)(=O)c3ccccc3)CC2)nc(-c2ccc(NC(=O)NCCF)cc2)n1 [Example 93c, 1-[4-[4-[1-(benzenesulfonyl)cyclopropyl]-6-[(3S,5S)-3,5-dimethylmorpholin-4-yl]pyrimidin-2-yl]phenyl]-3-(2-fluoroethyl)urea]"
10,3.14 nM,"C[C@H]1COCCN1c1cc(C2(S(=O)(=O)C3CC3)CCC2)nc(-c2ccc(NC(=O)Nc3cnn(C)c3)cc2)n1 [Example 36h, 1-[4-[4-(1-cyclopropylsulfonylcyclobutyl)-6-[(3S)-3-methylmorpholin-4-yl]pyrimidin-2-yl]phenyl]-3-(1-methylpyrazol-4-yl)urea]"
11,214 nM,"C[C@H]1COCCN1c1cc(C2(S(=O)(=O)CCCO)CC2)nc(-c2ccc(NC(=O)NCCN(C)C)cc2)n1 [Example 31l, 3-(2-dimethylaminoethyl)-1-[4-[4-[1-(3-hydroxypropylsulfonyl)cyclopropyl]-6-[(3S)-3-methylmorpholin-4-yl]pyrimidin-2-yl]phenyl]urea]"
12,1.6 nM,"C[C@H]1COCCN1c1cc(C2(S(=O)(=O)CCCO)CC2)nc(-c2ccc(NC(=O)NCCO)cc2)n1 [Example 31f, 3-(2-hydroxyethyl)-1-[4-[4-[1-(3-hydroxypropylsulfonyl)cyclopropyl]-6-[(3S)-3-methylmorpholin-4-yl]pyrimidin-2-yl]phenyl]urea]"
13,9.44 nM,"C[C@H]1COCCN1c1cc(C2(S(=O)(=O)c3ccccc3)CC2)nc(-c2ccc(NC(=S)NCCCO)cc2)n1 [Example 37x, 1-[4-[4-[1-(benzenesulfonyl)cyclopropyl]-6-[(3S)-3-methylmorpholin-4-yl]pyrimidin-2-yl]phenyl]-3-(3-hydroxypropyl)thiourea]"
14,38.6 nM,"C[C@H]1COCCN1c1cc(C2(S(=O)(=O)CCCO)CCOCC2)nc(-c2ccc(NC(=O)Nc3nccs3)cc2)n1 [Example 36ci, 1-[4-[4-[4-(3-hydroxypropylsulfonyl)oxan-4-yl]-6-[(3S)-3-methylmorpholin-4-yl]pyrimidin-2-yl]phenyl]-3-(1,3-thiazol-2-yl)urea]"
15,467 nM,"CCS(=O)(=O)C1(c2cc(N3CCOC[C@@H]3C)nc(-c3ccc(NC(=O)NC4(CO)CC4)cc3)n2)CC1 [Example 36v, 1-[4-[4-(1-ethylsulfonylcyclopropyl)-6-[(3S)-3-methylmorpholin-4-yl]pyrimidin-2-yl]phenyl]-3-[1-(hydroymethyl)cyclopropyl]urea]"
16,5.35 nM,"Cc1csc(S(=O)(=O)C2(c3cc(N4CCOCC4)nc(-c4ccc(NC(=O)Nc5cnn(C)c5)cc4)n3)CC2)n1 [Example 42b, 3-(1-methylpyrazol-4-yl)-1-[4-[4-[1-[(4-methyl-1,3-thiazol-2-yl)sulfonyl]cyclopropyl]-6-morpholin-4-ylpyrimidin-2-yl]phenyl]urea]"
17,9.24 nM,"C[C@H]1COCCN1c1cc(C2(S(=O)(=O)c3ccccc3Cl)CC2)nc(-c2ccc(NC(=O)NCC(F)F)cc2)n1 [Example 76d, 1-[4-[4-[1-(2-chlorophenyl)sulfonylcyclopropyl]-6-[(3S)-3-methylmorpholin-4-yl]pyrimidin-2-yl]phenyl]-3-(2,2-difluoroethyl)urea]"
18,1.87 nM,"CNC(=O)Nc1ccc(-c2nc(N3CCOC[C@@H]3C)cc(C3(S(=O)(=O)c4ccc(C(=O)N(C)C)cn4)CC3)n2)cc1 [Example 49, N,N-Dimethyl-6-[1-[2-[4-(methylcarbamoylamino)phenyl]-6-[(3S)-3-methylmorpholin-4-yl]pyrimidin-4-yl]cyclopropyl]sulfonylpyridine-3-carboxamide]"
19,57.7 nM,"C[C@H](CO)NC(=O)Nc1ccc(-c2nc(N3CCOC[C@@H]3C)cc(C3(S(=O)(=O)CCCO)CCC3)n2)cc1 [Example 43r, 3-[(2R)-1-hydroxypropan-2-yl]-1-[4-[4-[1-(3-hydroxypropylsulfonyl)cyclobu-tyl]-6-[(3S)-3-methylmorpholin-4-yl]pyrimidin-2-yl]phenyl]urea]"
20,13.6 nM,"CNC(=O)Nc1ccc(-c2nc(N3CCOC[C@@H]3C)cc(C3(S(=O)(=O)C4CC4)CC3)n2)cn1 [Example 14a, 1-[5-[4-(1-cyclopropylsulfonylcyclopropyl)-6-[(3S)-3-methylmorpholin-4-yl]pyrimidin-2-yl]pyridin-2-yl]-3-methylurea]"
21,12 nM,"C[C@H]1COCCN1c1cc(C2(S(=O)(=O)c3ccccc3)CCCC2)nc(-c2ccc(NC(=O)NCCCO)cc2)n1 [Example 36by, 1-[4-[4-[1-(benzenesulfonyl)cyclopentyl]-6-[(3S)-3-methylmorpholin-4-yl]pyrimidin-2-yl]phenyl]-3-(3-hydroxypropyl)urea]"
22,13.4 nM,"CC[C@H]1COCCN1c1cc(C2(S(C)(=O)=O)CC2)nc(-c2ccc(NC(=O)Nc3cnn(C)c3)cc2)n1 [Example 84f, 1-[4-[4-[(3S)-3-ethylmorpholin-4-yl]-6-(1-methylsulfonylcyclopropyl)pyrimidin-2-yl]phenyl]-3-(1-methylpyrazol-4-yl)urea]"
23,78.2 nM,"CCCNC(=S)Nc1ccc(-c2nc(N3CCOC[C@@H]3C)cc(C3(S(=O)(=O)CCCO)CCC3)n2)cc1 [Example 99h, 3-[4-[4-[1-(3-hydroxypropylsulfonyl)cyclobutyl]-6-[(3S)-3-methylmorpholin-4-yl]pyrimidin-2-yl]phenyl]-1-propylthiourea]"
24,5.59 nM,"C[C@H]1COCCN1c1cc(C2(S(C)(=O)=O)CCNCC2)nc(-c2ccc(NC(=O)NCCO)cc2)n1 [Example 20c, 3-(2-hydroxyethyl)-1-[4-[4-[(3S)-3-methylmorpholin-4-yl]-6-(4-methylsulfonylpiperidin-4-yl)pyrimidin-2-yl]phenyl]urea]"
25,2.37 nM,"CC[C@H]1COCCN1c1cc(C2(S(=O)(=O)c3ccccc3)CC2)nc(-c2ccc(NC(=O)NC)cc2)n1 [Example 74, 1-[4-[4-[1-(Benzenesulfonyl)cyclopropyl]-6-[(3S)-3-ethylmorpholin-4-yl]pyrimidin-2-yl]phenyl]-3-methylurea]"
26,2.88 nM,"CNC(=O)Nc1ccc(-c2nc(N3CCOCC3)cc(C3(C(=O)N(C)C4CC4)CC3)n2)cc1 [Example 32c, N-cyclopropyl-N-methyl-1-[2-[4-(methylcarbamoylamino)phenyl]-6-morpholin-4-ylpyrimidin-4-yl]cyclopropane-1-carboxamide]"

# From patent US20090018134A1, “Compounds - 945” (AstraZeneca AB, priority 2007, published 2009)
